Measured values published in patent US20120083522A1, “MODULATION OF INFLAMMATORY RESPONSES BY FACTOR XI” (Isis Pharmaceuitcals, inc., priority 2009, published 2012).
In the oligonucleotide strings, read from the 5' end, every base follows the letter of its sugar. An asterisk marks phosphorothioate; unmarked linkages are phosphodiester. Other units and linkages are bracketed, terminal groups are in braces. A string of capitals states the bases alone. e = 2'-O-(2-methoxyethyl) (MOE); [5mC] = 5-methylcytosine; d = 2'-deoxy (DNA)

Assays:
[1] = test system: human Factor XI mRNA; assay: Dose-dependent inhibition and IC50 in HepG2 cells, microwalk gapmers, electroporation (Example 16); format: cell-based
Experimental: These gapmers were tested at various doses in HepG2 cells. Cells were plated at a density of 20,000 cells per well and transfected using electroporation with 375 nM, 750 nM, 1,500 nM, 3,000 nM, 6,000 nM and 12,000 nM concentrations of antisense oligonucleotide, as specified in Table 54. After a treatment period of approximately 16 hours, RNA was isolated from the cells and Factor XI mRNA levels were measured by quantitative real-time PCR. Human Factor XI primer probe set RTS 2966 was used to measure mRNA levels. Factor XI mRNA levels were adjusted according to total RNA content, as measured by RIBOGREEN. Results are presented as percent inhibition of Factor XI, relative to untreated control cells.
ISIS 416850, ISIS 416858, ISIS 445522, and ISIS 445531 (see Table 52 above) were re-tested in vitro along with the microwalk gapmers under the same conditions described above.
The chimeric antisense oligonucleotides in Table 53 were designed as 3-8-3 MOE, 4-8-4 MOE, 2-10-2 MOE, 3-10-3 MOE, or 4-10-4 MOE gapmers. The 3-8-3 gapmer is 14 nucleotides in length, wherein the central gap segment is comprised of eight 2′-deoxynucleotides and is flanked on both sides (in the 5′ and 3′ directions) by wings comprising three nucleotides each. The 4-8-4 gapmer is 16 nucleotides in length, wherein the central gap segment is comprised of eight 2′-deoxynucleotides and is flanked on both sides (in the 5′ and 3′ directions) by wings comprising four nucleotides each. The 2-10-2 gapmer is 14 nucleotides in length, wherein the central gap segment is comprised of ten 2′-deoxynucleotides and is flanked on both sides (in the 5′ and 3′ directions) by wings comprising two nucleotides each. The 3-10-3 gapmer is 16 nucleotides in length, wherein the central gap segment is comprised of ten 2′-deoxynucleotides and is flanked on both sides (in the 5′ and 3′ directions) by wings comprising three nucleotides each. The 4-10-4 gapmer is 18 nucleotides in length, wherein the central gap segment is comprised of ten 2′-deoxynucleotides and is flanked on both sides (in the 5′ and 3′ directions) by wings comprising four nucleotides each. For each of the motifs (3-8-3, 4-8-4, 2-10-2, 3-10-3, and 4-10-4), each nucleotide in the 5′ wing segment and each nucleotide in the 3′ wing segment has a 2′-MOE modification. The internucleoside linkages throughout each gapmer are phosphorothioate (P═S) linkages. All cytidine residues throughout each gapmer are 5-methylcytidines. “Human Target start site” indicates the 5′-most nucleotide to which the gapmer is targeted in the human sequence. “Human Target stop site” indicates the 3′-most nucleotide to which the gapmer is targeted in the human sequence. Each gapmer listed in Table 53 is targeted to SEQ ID NO: 1 (GENBANK Accession No. NM_000128.3). Each gapmer is Table 53 is also fully cross-reactive with the rhesus monkey Factor XI gene sequence, designated herein as SEQ ID NO: 274 (exons 1-15 GENBANK Accession No. NW—001118167.1). ‘Rhesus monkey start site’ indicates the 5′-most nucleotide to which the gapmer is targeted in the rhesus monkey sequence. ‘Rhesus monkey stop site’ indicates the 3′-most nucleotide to which the gapmer is targeted to the rhesus monkey sequence.
The first two listed gapmers in Table 54 are the original gapmers (ISIS 416850 and ISIS 416858) from which the remaining gapmers were designed via microwalk and are designated by an asterisk.

[2] = test system: Factor XI mRNA; assay: Cynomolgus monkeys, 25 mg/kg: liver Factor XI RNA analysis (Example 30); format: in vivo; conditions: 25 mg/kg s.c.; day 55; liver
Experimental: (§1) Groups, each consisting of two male and two female monkeys, were injected subcutaneously with 25 mg/kg of ISIS 416850, ISIS 449709, ISIS 445522, ISIS 449710, ISIS 449707, ISIS 449711, ISIS 449708, 416858 and ISIS 445531. Antisense oligonucleotide was administered to the monkeys at 25 mg/kg three times per week for week 1 and 25 mg/kg twice per week for weeks 2 to 8. A control group, consisting of two male and two female monkeys was injected subcutaneously with PBS according to the same dosing regimen. Body weights were taken 14 days and 7 days before the start of treatment and were then measured weekly throughout the treatment period. Blood samples were collected 14 days and 5 days before the start of treatment and subsequently several times during the dosing regimen for measurement of various hematologic factors. On day 55, the monkeys were euthanized by exsanguination while under deep anesthesia, and organs harvested for further analysis.
On day 55, RNA was extracted from liver tissue for real-time PCR analysis of Factor XI using primer probe set LTS00301. Results are presented as percent inhibition of Factor XI, relative to PBS control.

[3] = test system: Factor XI protein; assay: Cynomolgus monkeys: plasma Factor XI protein ELISA (Example 30); format: in vivo; conditions: 25 mg/kg s.c., plasma ELISA
Experimental: as §1
Plasma samples from all monkey groups taken on different days were analyzed by a sandwich-style ELISA assay (Affinity Biologicals Inc.) using an affinity-purified polyclonal anti-Factor XI antibody as the capture antibody and a peroxidase-conjugated polyclonal anti-Factor XI antibody as the detecting antibody. Monkey plasma was diluted 1:50 for the assay. Peroxidase activity was expressed by incubation with the substrate o-phenylenediamine. The color produced was quantified using a microplate reader at 490 nm and was considered to be proportional to the concentration of Factor XI in the samples.
The results are presented in Table 148, expressed as percentage reduction relative to that of the PBS control.

449707 (antisense e[5mC]*eA*e[5mC]*eA*dG*dT*dT*dT*d[5mC]*dT*dG*dG*e[5mC]*eA*eG*eG) [compound 449707]
percent inhibition of Factor XI mRNA ([1]; electroporation, 375 nM): 7%
percent inhibition of Factor XI mRNA ([1]; electroporation, 750 nM): 35%
percent inhibition of Factor XI mRNA ([1]; electroporation, 1,500 nM): 63%
percent inhibition of Factor XI mRNA ([1]; electroporation, 3,000 nM): 73%
percent inhibition of Factor XI mRNA ([1]; electroporation, 6,000 nM): 85%
percent inhibition of Factor XI mRNA ([1]; electroporation, 12,000 nM): 91%
% inhibition of Factor XI mRNA in liver relative to the PBS control [2]: 47%
Inhibition of Factor XI protein relative to the PBS control ([3]; Day 10): 16%
Inhibition of Factor XI protein relative to the PBS control ([3]; Day 17): 19%
Inhibition of Factor XI protein relative to the PBS control ([3]; Day 24): 21%
Inhibition of Factor XI protein relative to the PBS control ([3]; Day 31): 29%
Inhibition of Factor XI protein relative to the PBS control ([3]; Day 38): 28%
Inhibition of Factor XI protein relative to the PBS control ([3]; Day 45): 35%
Inhibition of Factor XI protein relative to the PBS control ([3]; Day 52): 29%
Inhibition of Factor XI protein relative to the PBS control ([3]; Day 55): 32%
Inhibition of Factor XI protein relative to the PBS control ([3]; Day −5): 0%
Inhibition of Factor XI protein relative to the PBS control ([3]; Day −14): 0%

449708 (antisense eA*e[5mC]*eA*dG*dT*dT*dT*d[5mC]*dT*dG*dG*e[5mC]*eA*eG) [compound 449708]
percent inhibition of Factor XI mRNA ([1]; electroporation, 375 nM): 0%
percent inhibition of Factor XI mRNA ([1]; electroporation, 750 nM): 0%
percent inhibition of Factor XI mRNA ([1]; electroporation, 1,500 nM): 22%
percent inhibition of Factor XI mRNA ([1]; electroporation, 3,000 nM): 33%
percent inhibition of Factor XI mRNA ([1]; electroporation, 6,000 nM): 61%
percent inhibition of Factor XI mRNA ([1]; electroporation, 12,000 nM): 85%
% inhibition of Factor XI mRNA in liver relative to the PBS control [2]: 46%
Inhibition of Factor XI protein relative to the PBS control ([3]; Day 10): 7%
Inhibition of Factor XI protein relative to the PBS control ([3]; Day 17): 15%
Inhibition of Factor XI protein relative to the PBS control ([3]; Day 24): 3%
Inhibition of Factor XI protein relative to the PBS control ([3]; Day 31): 14%
Inhibition of Factor XI protein relative to the PBS control ([3]; Day 38): 9%
Inhibition of Factor XI protein relative to the PBS control ([3]; Day 45): 2%
Inhibition of Factor XI protein relative to the PBS control ([3]; Day 52): 6%
Inhibition of Factor XI protein relative to the PBS control ([3]; Day 55): 6%
Inhibition of Factor XI protein relative to the PBS control ([3]; Day −5): 0%
Inhibition of Factor XI protein relative to the PBS control ([3]; Day −14): 1%

449709 (antisense eG*e[5mC]*eA*e[5mC]*dA*dG*dT*dT*dT*d[5mC]*dT*dG*dG*d[5mC]*eA*eG*eG*e[5mC]) [compound 449709]
percent inhibition of Factor XI mRNA ([1]; electroporation, 375 nM): 52%
percent inhibition of Factor XI mRNA ([1]; electroporation, 750 nM): 71%
percent inhibition of Factor XI mRNA ([1]; electroporation, 1,500 nM): 80%
percent inhibition of Factor XI mRNA ([1]; electroporation, 3,000 nM): 87%
percent inhibition of Factor XI mRNA ([1]; electroporation, 6,000 nM): 92%
percent inhibition of Factor XI mRNA ([1]; electroporation, 12,000 nM): 95%
% inhibition of Factor XI mRNA in liver relative to the PBS control [2]: 69%
Inhibition of Factor XI protein relative to the PBS control ([3]; Day 10): 27%
Inhibition of Factor XI protein relative to the PBS control ([3]; Day 17): 35%
Inhibition of Factor XI protein relative to the PBS control ([3]; Day 24): 44%
Inhibition of Factor XI protein relative to the PBS control ([3]; Day 31): 45%
Inhibition of Factor XI protein relative to the PBS control ([3]; Day 38): 46%
Inhibition of Factor XI protein relative to the PBS control ([3]; Day 45): 48%
Inhibition of Factor XI protein relative to the PBS control ([3]; Day 52): 47%
Inhibition of Factor XI protein relative to the PBS control ([3]; Day 55): 50%
Inhibition of Factor XI protein relative to the PBS control ([3]; Day −5): 0%
Inhibition of Factor XI protein relative to the PBS control ([3]; Day −14): 1%

449710 (antisense e[5mC]*eA*e[5mC]*dA*dG*dT*dT*dT*d[5mC]*dT*dG*dG*d[5mC]*eA*eG*eG) [compound 449710]
percent inhibition of Factor XI mRNA ([1]; electroporation, 375 nM): 2%
percent inhibition of Factor XI mRNA ([1]; electroporation, 750 nM): 21%
percent inhibition of Factor XI mRNA ([1]; electroporation, 1,500 nM): 52%
percent inhibition of Factor XI mRNA ([1]; electroporation, 3,000 nM): 70%
percent inhibition of Factor XI mRNA ([1]; electroporation, 6,000 nM): 82%
percent inhibition of Factor XI mRNA ([1]; electroporation, 12,000 nM): 87%
% inhibition of Factor XI mRNA in liver relative to the PBS control [2]: 52%
Inhibition of Factor XI protein relative to the PBS control ([3]; Day 10): 10%
Inhibition of Factor XI protein relative to the PBS control ([3]; Day 17): 14%
Inhibition of Factor XI protein relative to the PBS control ([3]; Day 24): 17%
Inhibition of Factor XI protein relative to the PBS control ([3]; Day 31): 25%
Inhibition of Factor XI protein relative to the PBS control ([3]; Day 38): 20%
Inhibition of Factor XI protein relative to the PBS control ([3]; Day 45): 23%
Inhibition of Factor XI protein relative to the PBS control ([3]; Day 52): 4%
Inhibition of Factor XI protein relative to the PBS control ([3]; Day 55): 24%
Inhibition of Factor XI protein relative to the PBS control ([3]; Day −5): 0%
Inhibition of Factor XI protein relative to the PBS control ([3]; Day −14): 1%
